ChEMBL document CHEMBL5260810, “Inhibition of bromodomain-containing protein 9 for the prevention of epigenetically-defined drug resistance” (Bioorg Med Chem Lett, 2017)
pIC50: −log10 of the molar value.

Experiments:
L-363 = experiment: Cytotoxicity against human L-363 cells measured after 8 days; format: functional, cell-based; conditions: L-363, 192 h
[1] = Cytotoxicity against mouse LA-4 cells measured after 8 days; format: functional, cell-based; conditions: LA-4, 192 h
[2] = Cytotoxicity against human OCI-M1 cells measured after 8 days; format: functional, cell-based; conditions: OCI-M1, 192 h
NCI-H2171 = experiment: Cytotoxicity against human NCI-H2171 cells measured after 8 days; format: functional, cell-based; conditions: NCI-H2171, 192 h
NCI-H446 = experiment: Cytotoxicity against human NCI-H446 cells measured after 8 days; format: functional, cell-based; conditions: NCI-H446, 192 h
[3] = Cytotoxicity against human RERF-LC-KJ cells measured after 8 days; format: functional, cell-based; conditions: 192 h
SK-N-BE(2)-M17 = experiment: Cytotoxicity against human SK-N-BE(2)-M17 cells measured after 8 days; format: functional, cell-based; conditions: SK-N-BE(2)-M17, 192 h
[4] = Cytotoxicity against human NCE-G 112 cells measured after 8 days; format: functional, cell-based; conditions: NCE-G 112, 192 h
[5] = Cytotoxicity against human NCE-G 121 cells measured after 8 days; format: functional, cell-based; conditions: NCE-G 121, 192 h
[6] = Cytotoxicity against human NCE-G 130 cells measured after 8 days; format: functional, cell-based; conditions: NCE-G 130, 192 h
[7] = Cytotoxicity against human NCE-G 59 cells measured after 8 days; format: functional, cell-based; conditions: NCE-G 59, 192 h
[8] = Cytotoxicity against human NCE-G 84 cells measured after 8 days; format: functional, cell-based; conditions: NCE-G 84, 192 h
GI-1 = experiment: Cytotoxicity against human GI-1 cells measured after 8 days; format: functional, cell-based; conditions: GI-1, 192 h
MPC-11 = experiment: Cytotoxicity against mouse MPC-11 cells measured after 8 days; format: functional, cell-based; conditions: MPC-11, 192 h
Rec1 = experiment: Cytotoxicity against human REC1 cells measured after 8 days; format: functional, cell-based; conditions: Rec1, 192 h
[9] = Cytotoxicity against human Kelly cells measured after 8 days; format: functional, cell-based; conditions: 192 h
[10] = Cytotoxicity against human KNS-81 cells measured after 8 days; format: functional, cell-based; conditions: KNS-81, 192 h
SK-N-AS = experiment: Cytotoxicity against human SK-N-AS cells measured after 8 days; format: functional, cell-based; conditions: 192 h
SU-DHL-5 = experiment: Cytotoxicity against human SU-DHL-5 cells measured after 8 days; format: functional, cell-based; conditions: SU-DHL-5, 192 h
SU-DHL-6 = experiment: Cytotoxicity against human SU-DHL-6 cells measured after 8 days; format: functional, cell-based; conditions: SU-DHL-6, 192 h
[11] = Cytotoxicity against human SM1 cells measured after 8 days; format: functional, cell-based; conditions: SM1, 192 h
CAL-148 = experiment: Cytotoxicity against human CAL-148 cells measured after 8 days; format: functional, cell-based; conditions: CAL-148, 192 h
OVCAR-3 = experiment: Cytotoxicity against human OVCAR-3 cells measured after 8 days; format: functional, cell-based; conditions: OVCAR-3, 192 h
OV-90 = experiment: Cytotoxicity against human OV-90 cells measured after 8 days; format: functional, cell-based; conditions: OV-90, 192 h
[12] = Cytotoxicity against mouse JC cells measured after 8 days; format: functional, cell-based; conditions: 192 h
SUM149PT = experiment: Cytotoxicity against human SUM149PT cells measured after 8 days; format: functional, cell-based; conditions: 192 h
PEO1 = experiment: Cytotoxicity against human PEO1 cells measured after 8 days; format: functional, cell-based; conditions: PEO1, 192 h
RMG-I = experiment: Cytotoxicity against human RMG-I cells measured after 8 days; format: functional, cell-based; conditions: 192 h
[13] = Cytotoxicity against human RMUG-S cells measured after 8 days; format: functional, cell-based; conditions: 192 h
SK-OV-3 = experiment: Cytotoxicity against human SK-OV-3 cells measured after 8 days; format: functional, cell-based; conditions: SK-OV-3, 192 h
TOV21G = experiment: Cytotoxicity against human TOV-21G cells measured after 8 days; format: functional, cell-based; conditions: 192 h
TYK-nu = experiment: Cytotoxicity against human TYK-nu cells measured after 8 days; format: functional, cell-based; conditions: 192 h
ASPC1 = experiment: Cytotoxicity against human ASPC1 cells measured after 8 days; format: functional, cell-based; conditions: ASPC1, 192 h
[14] = Cytotoxicity against human BT-B cells measured after 8 days; format: functional, cell-based; conditions: 192 h
[15] = Cytotoxicity against human HCSC-1 cells measured after 8 days; format: functional, cell-based; conditions: HCSC-1, 192 h
[16] = Cytotoxicity against human KPP14388 LN cells measured after 8 days; format: functional, cell-based; conditions: 192 h
[17] = Cytotoxicity against human KPR3351 cells measured after 8 days; format: functional, cell-based; conditions: KPR3351, 192 h
PANC-03-27 = experiment: Cytotoxicity against human Panc 03.27 cells measured after 8 days; format: functional, cell-based; conditions: PANC-03-27, 192 h
C170 = experiment: Cytotoxicity against human C170 cells measured after 8 days; format: functional, cell-based; conditions: C170, 192 h
COLO-320-HSR = experiment: Cytotoxicity against human COLO 320HSR cells measured after 8 days; format: functional, cell-based; conditions: 192 h
SU.86.86 = experiment: Cytotoxicity against human SU-86-86 cells measured after 8 days; format: functional, cell-based; conditions: SU.86.86, 192 h
NCI-H2052 = experiment: Cytotoxicity against human NCI-H2052 cells measured after 8 days; format: functional, cell-based; conditions: NCI-H2052, 192 h
[18] = Cytotoxicity against human 537-mel cells measured after 8 days; format: functional, cell-based; conditions: 192 h
A2058 = experiment: Cytotoxicity against human A2058 cells measured after 8 days; format: functional, cell-based; conditions: A2058, 192 h
KYSE-180 = experiment: Cytotoxicity against human KYSE-180 cells measured after 8 days; format: functional, cell-based; conditions: KYSE-180, 192 h
[19] = Cytotoxicity against human COLO 818 cells measured after 8 days; format: functional, cell-based; conditions: COLO 818, 192 h
CAKI-1 = experiment: Cytotoxicity against human CAKI-1 cells measured after 8 days; format: functional, cell-based; conditions: CAKI-1, 192 h
CAL-54 = experiment: Cytotoxicity against human CAL-54 cells measured after 8 days; format: functional, cell-based; conditions: CAL-54, 192 h
G-402 = experiment: Cytotoxicity against human G-402 cells measured after 8 days; format: functional, cell-based; conditions: G-402, 192 h
C3A = experiment: Cytotoxicity against human C3A cells measured after 8 days; format: functional, cell-based; conditions: 192 h
MeWo = experiment: Cytotoxicity against human MeWo cells measured after 8 days; format: functional, cell-based; conditions: 192 h
[20] = Cytotoxicity against human SK23 cells measured after 8 days; format: functional, cell-based; conditions: SK-MEL-23, 192 h
WM-115 = experiment: Cytotoxicity against human WM-115 cells measured after 8 days; format: functional, cell-based; conditions: WM-115, 192 h
PLC-PRF-5 = experiment: Cytotoxicity against human PLCPRF5 cells measured after 8 days; format: functional, cell-based; conditions: PLC-PRF-5, 192 h
SNU-449 = experiment: Cytotoxicity against human SNU-449 cells measured after 8 days; format: functional, cell-based; conditions: SNU-449, 192 h
COLO-684 = experiment: Cytotoxicity against human COLO-684 cells measured after 8 days; format: functional, cell-based; conditions: COLO-684, 192 h
HT-1080 = experiment: Cytotoxicity against human HT-1080 cells measured after 8 days; format: functional, cell-based; conditions: HT-1080, 192 h
[21] = Cytotoxicity against human GCH-nu-YS cells measured after 8 days; format: functional, cell-based; conditions: 192 h
[22] = Cytotoxicity against human HEC-251 cells measured after 8 days; format: functional, cell-based; conditions: HEC-251, 192 h
[23] = Cytotoxicity against human HEC-265 cells measured after 8 days; format: functional, cell-based; conditions: HEC-265, 192 h
Homo sapiens = species on record: Homo sapiens; experiment: Inhibition of human N muscle type receptor at 10 uM relative to control

C/C=C/Cn1cc(-c2ccc(C(C)(C)O)cc2OC)c2cc[nH]c2c1=O
4.97: pIC50 [2]
4.78: pIC50 (MPC-11) | pIC50 (Rec1)
5.22: pIC50 [20]
4.70: pIC50 (L-363) | pIC50 [1] | pIC50 (NCI-H2171) | pIC50 (NCI-H446) | pIC50 [3] | pIC50 (SK-N-BE(2)-M17) | pIC50 [4] | pIC50 [5] | pIC50 [6] | pIC50 [7] | pIC50 [8] | pIC50 (GI-1) | pIC50 [9] | pIC50 [10] | pIC50 (SK-N-AS) | pIC50 (CAL-148) | pIC50 (OVCAR-3) | pIC50 (OV-90) | pIC50 [12] | pIC50 (SUM149PT) | pIC50 (PEO1) | pIC50 (RMG-I) | pIC50 [13] | pIC50 (SK-OV-3) | pIC50 (TOV21G) | pIC50 (TYK-nu) | pIC50 (ASPC1) | pIC50 [14] | pIC50 [15] | pIC50 [16] | pIC50 [17] | pIC50 (PANC-03-27) | pIC50 (C170) | pIC50 (COLO-320-HSR) | pIC50 (SU.86.86) | pIC50 (NCI-H2052) | pIC50 [18] | pIC50 (A2058) | pIC50 (KYSE-180) | pIC50 [19] | pIC50 (CAKI-1) | pIC50 (CAL-54) | pIC50 (C3A) | pIC50 (MeWo) | pIC50 (WM-115) | pIC50 (PLC-PRF-5) | pIC50 (SNU-449) | pIC50 (COLO-684) | pIC50 (HT-1080) | pIC50 [21] | pIC50 [22] | pIC50 [23]
4.95: pIC50 (SU-DHL-6) | pIC50 [11]
-7%: inhibition (Homo sapiens)
4.93: pIC50 (G-402)
4.99: pIC50 (SU-DHL-5)

C/C=C/Cn1cc(-c2ccc(C(=O)N3CCOCC3)cc2)c2cc[nH]c2c1=O
4.94: pIC50 [2]
4.71: pIC50 (RMG-I)
4.97: pIC50 (MPC-11)
4.98: pIC50 (L-363)
4.70: pIC50 (NCI-H2171) | pIC50 (NCI-H446) | pIC50 [3] | pIC50 (SK-N-BE(2)-M17) | pIC50 [4] | pIC50 [5] | pIC50 [6] | pIC50 [7] | pIC50 [8] | pIC50 (GI-1) | pIC50 (Rec1) | pIC50 [9] | pIC50 [10] | pIC50 (SK-N-AS) | pIC50 (CAL-148) | pIC50 (OVCAR-3) | pIC50 (OV-90) | pIC50 [12] | pIC50 (SUM149PT) | pIC50 (PEO1) | pIC50 [13] | pIC50 (SK-OV-3) | pIC50 (TOV21G) | pIC50 (TYK-nu) | pIC50 (ASPC1) | pIC50 [14] | pIC50 [15] | pIC50 [16] | pIC50 [17] | pIC50 (PANC-03-27) | pIC50 (C170) | pIC50 (COLO-320-HSR) | pIC50 (SU.86.86) | pIC50 (NCI-H2052) | pIC50 [18] | pIC50 (A2058) | pIC50 (KYSE-180) | pIC50 [19] | pIC50 (CAKI-1) | pIC50 (CAL-54) | pIC50 (C3A) | pIC50 (MeWo) | pIC50 [20] | pIC50 (WM-115) | pIC50 (PLC-PRF-5) | pIC50 (SNU-449) | pIC50 (COLO-684) | pIC50 (HT-1080) | pIC50 [21] | pIC50 [22] | pIC50 [23]
-1%: inhibition (Homo sapiens)
5.32: pIC50 (G-402)
4.92: pIC50 [1] | pIC50 (SU-DHL-6)
4.83: pIC50 (SU-DHL-5)
4.75: pIC50 [11]
